The source of these data is patent publication US20210369623A1, “COMPOSITION THAT FORMS LIQUID CRYSTALLINE PARTICLES” (Zeenar Enterprises Pty Ltd, priority 2018, published 2021).

One may read the logP as a log measure of how a compound divides between an organic and an aqueous phase.

A short description of data set [1]: In vitro release/permeation through porcine buccal mucosa in modified Ussing chamber (rosuvastatin, oxycodone, atorvastatin). The note with it: not yet tested.
The conditions of data set [2]: cited from earlier work.
The nature of data set [3]: SAXS of mixtures of GMO and excipient/active ingredient immersed in PBS (liquid crystal phase and lattice size). It is filed as physicochemical. Details: lamella phase lattice size: unit not given here. Particulars: for Threshold (minimum amount of ingredient required to increase the water channel size): % w/w of ingredient in GMO; for Phase structure: PBS buffer pH 6.8, ~22° C.; for Concentration at which V2(Pn3m) lattice size increased / Concentration of transformation/transition in liquid crystalline structure: concentration in GMO; for Concentration of transformation/transition in liquid crystalline structure: change to structure with larger water channels (e.g. Im3m). As to the method:
The samples were then mixed via a roller mixer at ˜10 RPM at 40° C. for at least 3 days.
One week prior to SAXS experiment, 100 mg samples were loaded into a transparent polystyrene 96 well plate (Nunc™) and immersed in 200 μL of PBS buffer (pH 6.8). The samples were stored away from light at ambient temperature, to allow the samples to reach equilibrium.
The SAXS/WAXS beamline at Australian Synchrotron, Melbourne, Australia was used to determine the liquid crystalline nanostructure in the samples.
A custom-designed plate holder was used to mount the samples plate directly onto the SAXS/WAXS beamline. Scans were automated using a pre-loaded set of position variables based on the well positions within the plate, the exposure time was 5 sec.
Data were obtained at ambient temperature (˜22° C.). […] The 2-D diffraction images were recorded on a Pilatus 1M detector and radially integrated using the in-house software “ScatterBrain”.

Where [4] appears, read: Concentration in GMO 1%, first value of the cell (first phase listed).
[5] abbreviates: Concentration in GMO 5%, first value of the cell (first phase listed).
Setting [6] is: Concentration in GMO 10%, first value of the cell (first phase listed).
Setting [7] is: Concentration in GMO 15%, first value of the cell (first phase listed).
Setting [8] is: Concentration in GMO 20%, first value of the cell (first phase listed).
[9] abbreviates: Concentration in GMO 10%, second value of the cell (second phase).
Where [10] appears, read: Concentration in GMO 15%, second value of the cell (second phase).

As for `CNCC(O)c1ccc(O)c(O)c1` (stereo not drawn) [Adrenaline], in data set [1], the “passage through the porcine oral mucosa in a Ussing chamber” value is on record as “expected to pass through the porcine oral mucosa”. In data set [2], the logP was −0.5 to −1.4.
Regarding `CC(C)c1c(C(=O)Nc2ccccc2)c(-c2ccccc2)c(-c2ccc(F)cc2)n1CC[C@@H](O)C[C@@H](O)CC(=O)O` [Atorvastatin], the “Threshold (minimum amount of ingredient required to increase the water channel size)” value in data set [3] is on record as 8-10%. Moreover, the Phase structure entry in data set [3] (Concentration in GMO 1%), in data set [3] (Concentration in GMO 5%), in data set [3] (Concentration in GMO 10%), in data set [3] (Concentration in GMO 15%), in data set [3] (Concentration in GMO 20%) and in data set [3] (Concentration in GMO 25%) was “V2(Pn3m)” each time. For the same compound, the Phase structure result in data set [3] (Concentration in GMO 35%) is “V2(Pn3m)”. In addition, the Lattice size in data set [3] (setting [4]) turned out to be 93.1 Å; in data set [3] (setting [5]), 99.2 Å; in data set [3] (setting [6]), 105 Å; in data set [3] (setting [7]), 101 Å; in data set [3] (setting [8]), 103 Å; in data set [3] (Concentration in GMO 25%, first value of the cell (first phase listed)) it was 102 Å. In data set [3] (Concentration in GMO 35%, first value of the cell (first phase listed)), the Lattice size came out at 105 Å. Besides, the “Concentration at which V2(Pn3m) lattice size increased” value in data set [3] is given as 10-35%.
Regarding `CC(C)c1nc(N(C)S(C)(=O)=O)nc(-c2ccc(F)cc2)c1/C=C/[C@@H](O)C[C@@H](O)CC(=O)O` [Rosuvastatin], the logP in data set [2] is 1.92. Moreover, in data set [3], the “Threshold (minimum amount of ingredient required to increase the water channel size)” value is given as “A threshold of 3-5% or about 5%. Transformation in structure”. The Phase structure result in data set [3] (Concentration in GMO 1%) is listed as “V2(Pn3m)”; in data set [3] (Concentration in GMO 5%), “V2(Pn3m)”; in data set [3] (Concentration in GMO 10%), “V2(Pn3m)”; in data set [3] (Concentration in GMO 15%) it was “V2(Pn3m) + V2(Im3m)”. Moreover, the Lattice size in data set [3] (setting [4]) amounted to 84.2 Å; in data set [3] (setting [5]), 109 Å; in data set [3] (setting [6]), 109 Å; in data set [3] (setting [9]), 131 Å; in data set [3] (setting [7]), 122 Å; in data set [3] (setting [10]) it was 148 Å. For the same compound, the “Concentration at which V2(Pn3m) lattice size increased” value in data set [3] is reported as “Rosuvastatin - V2(Pn3m) lattice size increased at 5-15%”.
For the compound `CCCCCCCCCCCCOS(=O)(=O)[O-].[Na+]` [SLS, sodium lauryl sulphate], the “Threshold (minimum amount of ingredient required to increase the water channel size)” value in data set [3] is 3-5% or about 5%. SLS was also tested in SBT137 and shown to increase. Also, the Phase structure entry in data set [3] (Concentration in GMO 1%), in data set [3] (Concentration in GMO 5%) and in data set [3] (Concentration in GMO 10%) was “V2(Pn3m)” each time. Besides, the Lattice size in data set [3] (setting [4]) came to 95.4 Å; in data set [3] (setting [5]) it was 116 Å; in data set [3] (setting [6]) it was 133 Å. Also, in data set [3], the “Concentration of transformation/transition in liquid crystalline structure” value was “with large water channels. Transition at about 50%”.
As to `O=C1NS(=O)(=O)c2ccccc21.[Na]` [Saccharin sodium], the “Threshold (minimum amount of ingredient required to increase the water channel size)” value in data set [3] was 3-5%. Further, the values for the Phase structure entry in data set [3] (Concentration in GMO 1%), in data set [3] (Concentration in GMO 5%) and in data set [3] (Concentration in GMO 10%) were “V2(Pn3m)”, “V2(Pn3m)” and “V2(Pn3m) + others”, respectively. For the same compound, the Lattice size in data set [3] (setting [4]) amounted to 95.4 Å; in data set [3] (setting [5]), 107 Å; in data set [3] (setting [6]), 120 Å. In addition, the “Concentration at which V2(Pn3m) lattice size increased” value in data set [3] was 5-10%.
On to `O=S(=O)([O-])NC1CCCCC1.[Na+]` [Sodium cyclamate], for which, in data set [3], the “Threshold (minimum amount of ingredient required to increase the water channel size)” value is listed as 3-5%. Besides, the values for the Phase structure entry in data set [3] (Concentration in GMO 1%), in data set [3] (Concentration in GMO 5%) and in data set [3] (Concentration in GMO 10%) were “V2(Pn3m)”, “V2(Pn3m)” and “V2(Pn3m) + other”, respectively. Also, the Lattice size in data set [3] (setting [4]) came to 93.1 Å; in data set [3] (setting [5]), 103 Å; in data set [3] (setting [6]) it was 113 Å. Also, the “Concentration at which V2(Pn3m) lattice size increased” value in data set [3] was 5-10%.
On to `OC[C@@H](O)[C@@H](O)[C@H](O)[C@@H](O)CO` [Sorbitol], for which the V2(Pn3m) lattice size in data set [3] (ingredient 1 to 50% in GMO) was in the range of 83 to 92 Å. Further, the “V2(Ia3d) lattice size” value in data set [3] (ingredient at 1% in GMO, blended with V2(Pn3m)) is listed as “about 138 nm”. In data set [3] (tablet excipient mixed with GMO), the “impact on the GMO cubic structure formed” value is on record as “minimal impact”.
For `CCCCCCCC/C=C\CCCCCCCC(=O)OCCOCC(OCCO)C1OCC(OCCO)C1OCCO` (stereo not drawn) [Tween 80], the “Threshold (minimum amount of ingredient required to increase the water channel size)” value in data set [3] was “size from an ODT. A threshold of 8-10% or about 10%”. The Phase structure result in data set [3] (Concentration in GMO 1%) is “V2(Pn3m)”; in data set [3] (Concentration in GMO 5%), “V2(Pn3m)”; in data set [3] (Concentration in GMO 10%) it was “V2(Pn3m)”; in data set [3] (Concentration in GMO 20%), “V2(Pn3m) + V2(Im3m)”. Also, the Lattice size in data set [3] (setting [4]) amounted to 91.9 Å; in data set [3] (setting [5]) it was 97.9 Å; in data set [3] (setting [6]) it was 106 Å; in data set [3] (setting [9]), 139 Å; in data set [3] (setting [8]) it was 138 Å; in data set [3] (Concentration in GMO 20%, second value of the cell (second phase)) it was 172 Å. Besides, the “Concentration at which V2(Pn3m) lattice size increased” value in data set [3] is “Tween 80 - V2(Pn3m) lattice size increased at 10-20%”. The “Concentration of transformation/transition in liquid crystalline structure” value in data set [3] is “Transformation in structure by about 20%”.
Turning to Ibuprofen lysine, in data set [3], the “Threshold (minimum amount of ingredient required to increase the water channel size)” value was 3-5%. In addition, the Phase structure entry in data set [3] (Concentration in GMO 1%) is given as “V2(Pn3m)”; in data set [3] (Concentration in GMO 5%) it was “V2(Pn3m)”; in data set [3] (Concentration in GMO 10%) it was “V2(Pn3m) + V2(Ia3d)”; in data set [3] (Concentration in GMO 15%) it was “Lα + V2(Ia3d)”. Further, the Lattice size in data set [3] (setting [4]) was found to be 88.9 Å; in data set [3] (setting [5]), 105 Å; in data set [3] (setting [6]), 131 Å; in data set [3] (setting [9]), 189 Å; in data set [3] (setting [7]), 80.7 Å; in data set [3] (setting [10]), 198 Å. Further, the “Concentration at which V2(Pn3m) lattice size increased” value in data set [3] is given as 5-10%. In addition, the “Concentration of transformation/transition in liquid crystalline structure” value in data set [3] is on record as “Transformation in structure by about 10%”.
As to Magnesium stearate, the V2(Pn3m) lattice size in data set [3] (ingredient 1-20% in GMO) lay in the range of 93 to 95 Å. Moreover, the “lamella phase lattice size” value in data set [3] (ingredient at 5-30% in GMO) worked out at 50. Also, the H2 lattice size in data set [3] (ingredient at 30% in GMO) stood at 62 nm.
